Data set [1] deals with A549 (human lung adenocarcinoma, ATCC CCL-185). In kind it is cell-based. The method, then:
(§1) The toxic effect was evaluated indirectly using the colorimetric MTT assay (3-[4,5-dimethylthiazol-2-yl]-2,5-diphenyl tetrazolium bromide, Thermo Fisher Scientific Inc, Massachusetts, USA) on A549 (human lung adenocarcinoma, ATCC CCL-185) and RAW 264.7 (murine macrophage-like ATCC TIB-71) cell lines. Cell lines were kindly provided by Instituto de Virología e Innovaciones Tecnológicas (IVIT), (INTA-CONICET, Buenos Aires, Argentina).
(§2) For the assay, A549 cells were seeded in 96-well plates at a density of 1 × 10^4 cells per well, while RAW 264.7 cells were seeded at a density of 5 × 10^4 cells per well. The plates were incubated for 24 h at 37 °C with 5% CO^2 to allow cell adhesion. The peptide P6.2 was dissolved in distilled water at a stock concentration of 10.24 mg/mL, and serial dilutions were made in RPMI-1640 medium supplemented with 10% fetal bovine serum (FBS, Internegocios S.A., Mercedes, Argentina). The concentrations used to assess P6.2 toxicity were the same as those previously employed in bacterial studies to determine the minimum inhibitory concentration (MIC) in antimicrobial activity assays. For the A549 cell line, P6.2 concentrations ranged from 4 µg/mL to 1024 µg/mL using serial dilutions in culture medium. For the RAW 264.7 cells, P6.2 concentrations ranged from 256 µg/mL to 8 µg/mL, with the concentration range adjusted based on preliminary results obtained from the A549 cell line.
(§3) Peptides were added and plates were incubated for 24 h at 37 °C in a 5% CO2 atmosphere. After incubation, the culture medium was removed, and the cells were washed with PBS (Phosphate Buffered Saline pH 7.2) to remove any remnants of the treatments. Next, 100 µL of MTT solution (0.5 mg/mL in PBS) was added to each well, and the plates were incubated for 0.5 to 3 h at 37 °C. During this period, viable cells reduced MTT, forming visible formazan crystals under a light field microscope (Zeiss Primovent, Oberkochen, Germany), indicating the cell metabolism of the compound.
(§4) At the end of the incubation, the supernatant was removed, and 200 µL of DMSO was added to each well to dissolve the formazan crystals. The plates were shaken to homogenize the contents, and absorbance was measured at 570 nm using a microplate reader (RT2100, Rayto Life and Analytical Sciences Co., Ltd, Shenzhen, China). Triplicates were run for each treatment. Cell viability was calculated by setting the absorbance value obtained for untreated control cells as 100% viability.

In data set [2] the test system is RAW 264.7 (murine macrophage-like ATCC TIB-71). In kind it is cell-based. The procedure: as §1, §2, §3, §4
The test system of data set [3] is P. aeruginosa M13513. Nature of the data set: Synergy by time-kill kinetic assay. As to conditions: P6.2 and meropenem both at 0.5× MIC, synergy = ≥2-log10 decrease in CFU/mL vs most active constituent after 24 h. In kind it is cell-based, Pseudomonas aeruginosa. The procedure:
The possible synergistic interaction between P6.2 and meropenem was assessed through time–kill kinetic assays. These experiments were conducted in 50 mL tubes with a final volume of 10 mL. A log-phase culture of P. aeruginosa M13513 was obtained and subsequently diluted in CAMHB to achieve a final bacterial concentration of 5 × 10^6 CFU/mL. Both P6.2 and meropenem were tested individually and in combination at 0.5× MIC (minimum inhibitory concentration). Untreated bacterial cultures served as controls.
The samples were incubated at 37 °C with constant shaking for 24 h. Aliquots were collected at 0, 1, 2, 3, 4, 8, and 20 h, serially diluted in saline, and plated in triplicate on LB agar using three drops of 50 µL per dilution. The plates were incubated at 37 °C for 24 h to determine colony-forming unit (CFU) counts.
The results were plotted as Log CFU/mL versus time (h). […] A bactericidal effect was determined when the initial inoculum was reduced by three or more logarithmic units.

In data set [4] the test system is P. aeruginosa M13513. Nature of the data set: Galleria mellonella larval infection model. In kind it is in vivo. An excerpt: Lepidoptera were reared in the laboratory in a standardized manner. A breeding colony was established, and the different stages of the insect’s life cycle were documented. Adult insects were housed in a plastic container without access to food, allowing for the collection of eggs. Then, eggs and larvae were placed in containers with fresh food, prepared from autoclaved wheat bran (50%), dry yeast (5%), beeswax (6%), honey (26%), and glycerin (13%). In each growth cycle, a pool of larvae was reserved to progress to pupa and adult generation. The larvae and eggs were kept at room temperature during the warm seasons and in an oven with humidity control at 30 °C during the cold seasons. For each experiment, a group of late-stage caterpillars was set aside and kept in the dark at a temperature of 10–12 °C, ensuring their use within one week of collection. For the in vivo tests, larvae of approximately 2 cm in length and an average weight of 250 mg were used. This average weight was used to calculate the antimicrobial doses. The bacterial inoculum used in the larval infection models was prepared from an ON culture, which was washed twice with physiological saline solution and adjusted by measuring OD600nm. […] The larvae were incubated at 37 °C, and their survival was monitored for five days.

Data set [5] deals with human erythrocytes. As to conditions: cited from earlier work. The procedure: Peptide 6.2 (P6.2) is a de novo designed antimicrobial peptide, with an amphipathic alfa helical structure. […] These findings are also in accordance with the previous results obtained for toxicity by hemolytic activity (hemolysis below 5% until 128 µg/mL).
For data set [6] the following is noted: affinity towards eukaryotic and prokaryotic membranes; cited from earlier work. An excerpt:
(§5) Peptide 6.2 (P6.2) is a de novo designed antimicrobial peptide, with an amphipathic alfa helical structure.

Data set [7] has as its system mice erythrocytes. As to conditions: cited from earlier work.
Excerpt: as §5

No end group written: not given here.

Regarding GLLRKWGKKWKEFLRRVWK-NH2 [Peptide P6.2], the LogCC50 turned out to be 2.100 in data set [1] and 2.188 in data set [2]. For the same substance, the “CC50 (cytotoxic concentration 50%)” value in data set [1] (24 h) turned out to be 125.8 µg/mL; in data set [2] (24 h), 154.1 µg/mL. For the same substance, the interaction with meropenem result in data set [3] is reported as “synergism”. The “survival compared with meropenem 2.5 alone (log-rank test)” value in data set [4] (P6.2 5 + Mer 2.5 vs Mer 2.5) is given as “not significative differences”. For the same substance, the “prevention of larvae death” value in data set [4] (peptide alone, 2.5-80 mg/kg single injection 1 h post infection, 10^3 CFU/larva, n = 10, 5 days) was “not effective”. Further, the erythrocytes lysis result in data set [5] and in data set [7] was “less than 10%” in each case. In data set [6], the membrane selectivity entry is “selectivity for bacterial membranes”.

(Values after publication PMC11940343, “In Vitro and In Vivo Evaluation of the De Novo Designed Antimicrobial Peptide P6.2 Against a KPC-Producing P. aeruginosa Clinical Isolate” (Biomolecules, 2025).)
